In PMC4830886, “Extended evaluation on the ES-D3 cell differentiation assay combined with the BeWo transport model, to predict relative developmental toxicity of triazole compounds” (Archives of Toxicology, 2015):
Marks after values point to notes of the source that are not given here.

Columns and labels:
[1] = WST-1 cytotoxicity assay with ES-D3 cells; assay type: cell-based; conditions: mouse, ES-D3 embryonic stem cells, WST-1, 5-day exposure, read-out: decline in cell viability
Procedure: The murine ES-D3 cell line was purchased from ATCC (Wesel, Germany). The cells were maintained in polystyrene cell culture flasks (Corning, The Netherlands) in Dulbecco’s modified Eagle’s medium (DMEM, Invitrogen, Breda, The Netherlands), supplemented with 20 % heat-inactivated fetal calf serum (Lonza, BioWhittaker, Verviers, Belgium), 50 U/ml penicillin with 50 μg/ml streptomycin (Invitrogen), 2 mM L-glutamine (Invitrogen), 0.1 mM β-mercaptoethanol (Sigma-Aldrich) and 1 % (v/v) nonessential amino acids (Invitrogen), at 37 °C and 5 % CO2 in a humidified atmosphere. Cells were kept undifferentiated with 1000 U/ml murine leukemia inhibiting factor (LIF) (Sigma-Aldrich) and subcultured every 2–3 days using nonenzymatic cell dissociation solution (Sigma-Aldrich) to detach the cells.
To determine cytotoxicity of the compounds, a WST-1 assay was performed. This assay measures the influence of test compounds on the formation of the water-soluble formazan reaction product from WST-1 by mitochondrial succinate-tetrazolium reductase enzymes. The cytotoxicity of a test compound inversely correlates with the absorbance of the produced formazan quantified spectrophotometrically as described previously (Reitsma et al. [2013]). ES-D3 cells were exposed to test compounds for the duration of 1 or 5 days as described before (Li et al. [2015]). Briefly, cells were seeded in 96-well plates (Greiner bio-one) at concentrations of 20 × 10^4 cells/ml (1-day exposure) or 1 × 10^4 cells/ml (5-day exposure) in 100 μl culture medium in the absence of LIF and incubated for 1 day to allow cell adherence. Then, the cells were exposed to the test compounds at concentrations up to 60 μM (final solvent concentration 0.2 % DMSO) and subsequently cultured for 1 or 5 days at 37 °C and 5 % CO2 in a humidified atmosphere. Solvent DMSO (0.2 %) was used as a negative control and 1 % Triton X-100 served as a positive control in all cytotoxicity assays. After incubation of 1 or 5 days, 20 μl WST-1 reagent (Roche, Woerden, The Netherlands) was added to each well and the plates were incubated for another 3 h. Then, absorbance was measured at 450 nm using a SpectraMax M2 (Molecular Devices, Sunnyvale, USA). Three wells were used per treatment in each independent experiment. Three independent experiments were done for each compound. The cell viability was expressed as % of the solvent control, with the solvent control set at 100 % viability. Reproducible results were obtained from the treatments of negative and positive controls in all of the cytotoxicity assays.

time-mated Wistar rats = assay: in vivo maternal and prenatal developmental toxicity screening study (OECD 414 principles); conditions: rat
From the text: The major differences to a full guideline study were the smaller sample size, using 9–10 instead of at least 16 pregnant rats, per test substance.
The animals were paired by the breeder [time-mated Wistar rats, Crl: WI (Han), Charles River Laboratories, Sulzfeld, Germany], between 10 and 12 weeks of age, and supplied on the day of evidence of mating; this day is referred to as gestational day (GD) 0 and following day as GD 1. […] This strain has been extensively used, both in our laboratory and elsewhere, and is sensitive to reproductive toxicants. All rats were housed individually in Makrolon cages with Lignocel PS 14 fibers dust-free bedding and wooden enrichment blocks. The cages were kept in climate-controlled rooms at 20–24 °C with a relative humidity of 30–70 %, an air exchange rate of 15 times per hour and a 12-h light/dark cycle. Diet (Ground Kliba SA, Switzerland) and tap water were provided ad libitum. In-life data (mortality, clinical signs, body weights and food consumption) were recorded throughout the study, but presented only if relevant for the interpretation of prenatal developmental effects.
The test compounds administered by gavage were administrated between 100 and 600 mg/kg bw/day using the vehicle 1 % carboxymethylcellulose in deionized water. The standard dose volume was 10 ml/kg bw.
On GD 20, the surviving dams were anesthetized with isoflurane, killed by decapitation and examined macroscopically. For each dam, the uterus was opened and the number, distribution and classification of implantation sites (live fetus, early and late fetal resorptions, and dead fetus) were determined. The fetuses were removed, sexed and fetal body weight determined. Gross pathological examination of the fetuses, including assessment of abnormalities of the fetal membranes, placentas, amniotic fluid and umbilical cord, was performed. Subsequently, all fetuses were killed by injection of pentobarbital. […] The other half of the fetuses of each dam was fixed in Harrison’s fluid. […] A permanent structural change that is likely to affect adversely the survival or health was assessed as malformation. A change that also occurs in the fetuses of control animals and/or is unlikely to affect adversely the survival or health was assessed as variation. This includes delays in growth or morphogenesis that have otherwise followed a normal pattern of development.
Maternal toxicity was classified as slight if body weight and/or carcass weight reduction is not above 10 %, moderate if body weight and/or carcass weight reduction is between 10 and 20 % and severe if body weight and/or carcass weight reduction is above 20 %. All the in vivo data are expressed as the affected fetuses/litter.

[2] = gavage GD 6–19, 200 mg/kg, affected fetuses/litter
[3] = gavage GD 6–19, 600 mg/kg, affected fetuses/litter

## CC(c1nc(-c2ccc(C#N)cc2)cs1)C(O)(Cn1cncn1)c1ccc(F)cc1 (stereo not shown) [compound 0596, 4-{2-[2-(4-Fluoro-phenyl)-2-hydroxy-1-methyl-3-[1,2,4]triazol-1-yl-propyl]-thiazol-4-yl}-benzonitrile]
[1]
  cytotoxicity at 5 days, 60 µM: 70%
time-mated Wistar rats; gavage GD 6–19, 200 mg/kg
  Early resorption (%): 2.9%
  Fetal weight (%): 108%
  Late resorption (%): 0.0%
  Maternal toxicity classification: No
  Maternal toxicity findings: NAD
  Placenta weight (%): 127** %
  Postimplantation loss (%): 2.9%
  Total number of fetuses: 109
time-mated Wistar rats; [2]
  Misshapen basisphenoid: 30.6%
  Misshapen cervical arch: 14.3%
  Severely malformed skull bones: 5.3%
time-mated Wistar rats; gavage GD 6–19, 600 mg/kg
  Early resorption (%): 7.7%
  Fetal weight (%): 105%
  Late resorption (%): 0.8%
  Maternal toxicity classification: No
  Maternal toxicity findings: NAD
  Placenta weight (%): 133%
  Postimplantation loss (%): 8.6%
  Total number of fetuses: 102
time-mated Wistar rats; [3]
  Malformation, Total (skeletal): Total 100 %**
  Misshapen basisphenoid: 13%
  Misshapen cervical arch: 70.2%
  Severely malformed skull bones: 82.8%
time-mated Wistar rats; 1 = highest potential, 6 = lowest, among the six test compounds
  Ranking (in vivo prenatal developmental toxicity potency): 2

## CC1CC(C)OC(Cn2cncn2)(c2ccc(Oc3ccc(Cl)cc3)cc2Cl)O1 (stereo not shown) [compound 0600, 1-[[2-[2-Chloro-4-(4-chlorophenoxy)phenyl]-4,6-dimethyl-1,3-dioxan-2-yl]methyl]-1,2,4-triazole]
[1]
  cytotoxicity at 5 days, 60 µM: 20%
time-mated Wistar rats; female, Wistar Crl:WI(Han), in vivo
  Ranking (in vivo prenatal developmental toxicity potency): 3
time-mated Wistar rats; gavage GD 6–19, 200 mg/kg
  Early resorption (%): 4.0%
  Fetal weight (%): 102%
  Late resorption (%): 0.0%
  Maternal toxicity classification: No
  Maternal toxicity findings: NAD
  Placenta weight (%): 105%
  Postimplantation loss (%): 4.0%
  Total number of fetuses: 99
time-mated Wistar rats; [2]
  Malformation, Total (skeletal): Total 0%
time-mated Wistar rats; gavage GD 6–19, 600 mg/kg
  Early resorption (%): 6.0%
  Fetal weight (%): 102%
  Late resorption (%): 1.0%
  Placenta weight (%): 130%
  Postimplantation loss (%): 7.0%
  Total number of fetuses: 104
time-mated Wistar rats; [3]
  Malformation, CP (cleft palate): 5%
  Malformation, Total (skeletal): 81%
  Misshapen pterygoid bones: 36.3%
  Small tuberositas deltoidea: 48.1%
